# Source: US5567736A, “Use of a choline salt to inhibit fatty liver in patients receiving total parenteral nutrition” (priority 1994, dated 1996)
# Several values for one entry are separate records, joined by “and”; a condition that tells them apart may be missing. Equal entries are not always repeated.
# Assays:
# [1] = tested on: hepatic steatosis (liver)
# Excerpt: (§1) Four subjects who were known to have low plasma free choline levels and hepatic steatosis were studied. The subjects included 3 females and 1 person. Two subjects had short bowel syndrome from Crohn's disease, one had radiation enteritis and the fourth had pseudo-obstruction. The subjects had received home TPN for 9.7±4.7 years. Their TPN consisted of 2-3L of 15-25% dextrose solution with 3.0-3.5% amino acids, electrolytes, trace elements and vitamins. All subjects received 19.5±3.7 kcal-kg day actual body weight (range 16-24 kcal/kg/d). This level of support varied between subjects depending upon individual variation in oral intake and intestinal absorption.
# Intravenous lipid (Intralipid 20%, Clintec, Deerfield, Ill.) supplied 42.5%±25.7% of daily intravenous caloric intake. […] The TPN solution for each subject included 2.3-5 g of methionine on a daily basis depending upon the total amino acid concentration. The vitamin preparation included 5 μg vitamin B12 and 400 μg folate on a daily basis. All subjects received their TPN nightly as one dose over a period of 10-12 hours.
# (§2) Plasma-free choline level, serum SGOT, SGPT and total cholesterol levels were measured at each visit. Plasma free choline was measured by gas chromatography and mass spectrophotometry (See Jenden DJ, Roch M, Booth RA. Simultaneous measurements of endogenous and deuterium-labeled tracer variants of choline and acetylcholine in subpicomole quantities by gas chromatography spectrometry. Anal Biochem. 55:438-48, 1973; and Freeman JJ, Choi RL, Jenden DJ. Plasma choline: its turnover and exchange with brain choline. J. Neurochem. 24:729-34, 1975.)
# Computed tomography (CT) was used as a non-invasive method for quantifying hepatic fat density. Limited non-contrast CT scanning of the liver and spleen was performed using a GE 9800 CT scanner (Milwaukee, Wis.). Multiple contiguous 1-cm axial sections at 1-cm intervals were obtained. Attenuation values for regions of interest in the liver and spleen were generated from multiple representative sections. An average (mean) CT number in Hounsfield units (HU) was then calculated for each organ. Liver density was determined using two currently acceptable methods: a) the average absolute liver CT number, and b) the liver-spleen differential obtained by subtracting the average spleen CT number from the average liver CT number (to correct for interscan variability).
# In the normal state, the liver and spleen maintain a fairly constant relationship in terms of relative CT numbers on non-contrast scans. On the main scanner employed at our institution, normal liver density corresponds to approximately 45 HU in absolute terms, and normal liver attenuation values exceed those of the spleen by approximately 8 HU (i.e., a liver-spleen differential of approximately positive 8 HU). Fat has a distinctly lower attenuation than other tissues and thus a distinct appearance on the CT image, as well as a distinctly low CT number in HU. Hepatic density and hepatic steatosis are therefore inversely related. Fatty liver was defined as an absolute CT number </=45 HU, or a liver-spleen differential of </= positive 8.0 HU (with 0-to-positive 8 HU representing borderline fatty change and </=0 HU corresponding to marked fatty infiltration).
# [2] = all subjects; baseline 5.2±2.1, normal 11.4+/-3.7 nmol/ml
# Excerpt: as §1, with “females aged 45, 50 and 72 years” for “females”
# as §2
# The hepatic transaminase levels and cholesterol were determined using standard automated techniques. […]
# [3] = tested on: hepatic transaminase levels; settings: during the study, except Subject #1; three of four subjects had normal AST and ALT at baseline
# Description: as §2
# (§3) The hepatic transaminase levels and cholesterol were determined using standard automated techniques. Plasma phospholipid bound choline was measured at baseline, at the end of the 6 week nightly choline infusion and 4 weeks later following extraction as described by Folch et al (Folch J, Lees M, Stanley GHS. A simple method for the isolation and purification of total lipids from animal tissue. J. Bio Chem. 226:497-509, 1957.) and hydrolysis as described by Jope and Jenden (Jope RS, Jenden DJ. Choline and phospholipid metabolism and the synthesis of acetylcholine in rat brain. J. Neurosci Res. 4:69-82, 1979.). All blood samples were obtained on the subjects following an overnight fast and 3-5 hours following completion of the TPN.
# total serum cholesterol = settings: during the study
# Description: as §2, §3
# [4] = Excerpt: as §1, §2
# [5] = Subject #4, pharmacokinetic studies preceding the 6 week choline infusion
# Remark: listed apart in the source
# [6] = concentrations as high as 10 g/l
# [7] = various TPN nutrient solutions, at least 30 days
smiles,measurement,setting,value
C[N+](C)(C)CCO.[Cl-] [choline chloride],"Liver-spleen Hounsfield unit differential, 4 Wks post choline","[1]; 4 weeks after choline discontinued, b48 Subject 1 (baseline -47.0), b50 Subject 2 (-0.7), b52 Subject 3 (0.3)",10.6 Hounsfield unit and 15.7 Hounsfield unit and 15.0 Hounsfield unit
same,"Liver-spleen Hounsfield unit differential, 10 weeks post choline supplementation","[1]; Subject 4 (baseline -9.4), 10 weeks post choline supplementation",-6.3 Hounsfield unit
same,"liver-spleen CT number differential, normalisation","[1]; concurrent scans, six weeks of choline",assumed a normal or near-normal relationship
same,hepatic steatosis four weeks after choline was discontinued,[1]; follow-up post-supplementation CT,had not yet returned to baseline
same,"improvement of CT number difference (liver-spleen subtraction method), average","[1]; initial CT two weeks after choline started vs baseline, 4 subjects, p=0.002",20+/-16.5 HU
same,hepatic steatosis ten weeks after choline supplemented TPN discontinued,[1]; one subject (printed #3),had recurred
same,liver density ten weeks after choline supplemented TPN discontinued,[1]; one subject (printed #3),appeared identical to the baseline CT scan
same,liver-spleen differential ten weeks after choline supplemented TPN discontinued,[1]; one subject (printed #3),"returned to its original, pre-choline supplementation value"
same,hepatic steatosis during six weeks of choline supplementation,"[1]; six weeks of choline, all four subjects",completely resolved in all four subjects
same,liver density at initial CT scan,[1]; two weeks after choline supplementation initiated,marked increase in liver density
same,hepatic steatosis at initial CT scan,"[1]; two weeks after choline supplementation initiated, all 4 subjects",decreased significantly in all 4 subjects
same,"CT number difference (liver-spleen subtraction method), mean after choline","[1]; two weeks of choline, 4 subjects, baseline -14.2+/-22.3 HU, p=0.002",8.4 +/-10.3 HU
same,plasma free choline level after one week of choline supplementation,[2],increased into the normal range
same,hepatic transaminase levels,[3],No significant decreases
same,total serum cholesterol,total serum cholesterol,No change
same,tolerability after dose increased back to 1 g/day,"[4]; Subject #4, from day 30 for remainder of study, 1 g/day",without complaints
same,side effect requiring dose adjustment,"[4]; Subject #4, upon awakening at end of choline infusion, dose decreased from 2 g/day to 1 g/day, then 1 g every other day",mild nausea
same,side effects or dose adjustment in other subjects,[4]; subjects other than #4,No other subject experienced any side effects or required a dose adjustment
same,plasma free choline level tolerated without any side effects,[5],≤ 230 nmol/mL
same,effect on amino acid availability of the TPN solution,[6],does not affect
same,effect on pH of the TPN solution,[6],does not affect
same,stability in TPN solution,[6],at least 30 days
same,stability in various TPN nutrient solutions,various TPN nutrient solutions,at least 30 days
same,effect on TPN solution amino acid concentrations,[7],no adverse affects
same,effect on TPN solution pH,[7],no adverse affects
same,effect on TPN solution turbidity,[7],no adverse affects
